Consider five molecules from patent US8309611B2, “Methods and compositions for treating lung cancer” (Golden Biotechnology Corporation, priority 2011, dated 2012).

Converted amounts (≈) assume the structure as drawn. Read-outs that look alike come from different tables or passages of the source.

Data set [1] relates to NCI-H460. The data set is described as follows: MTT cell survival assay, NCI-H460. The format is cell-based. To be noted: Homo sapiens, 48 hours, read-out: IC50 (μg/ml), in vitro cell survival rate test, NCI-H460. On the procedure:
(§1) The NCI anti-cancer drug screen model was adopted to test anti-cancer effect of the exemplary compounds from Example 1. The isolated compound 1 from Example 1 was added into the culture media of human lung-cancer cells, A549, NCI-H460, CL1-0, CL1-5 or DMS 114, to test for tumor cell survival (either by MTT assay or colony formation assay). Compounds 4, 5, 6, and 7 were used in MTT assay against A549.
(§2) A549, CL1-0, and CL1-5 cells are human lung adenocarcinoma cell lines. CL1-0 cells are minimally invasive sub-lines with low migration. CL1-5 cell line, on the other hand, is highly invasive with high migration ability. The NCI-H460 cell line is derived from human large cell lung cancer, which is one of the major types of non-small cell lung carcinoma. DMS 114 is small cell lung cancer cell line, and was obtained from the American Type Culture Collection (Manassas, Va.).
(§3) MTT assay is commonly used to determine cell proliferation, percent of viable cells, and cytotoxicity. […]
(§4) To each of the 96 well plates containing A549, NCI-H460, CL1-0, CL1-5, DMS 114 or BEAS-2B, 0.03, 0.1, 0.3, 1 and 3 μg/ml of compound 1 were add. […] The survival rate of cells was calculated based on the measurement of absorption at the 570 nm wavelength by enzyme immunoassay analyzer.

Data set [2] relates to A549. The data set can be described thus: MTT cell survival assay, A549. The format is cell-based. To be noted: Homo sapiens. Here is the method: as §1, §2
MTT assay is commonly used to determine cell proliferation, percent of viable cells, and cytotoxicity. MTT (3-[4,5-dimethylthiazol-2-yl]2,5-diphenyltetrazolium bromide) is a yellow dye, which can be absorbed by the living cells and be reduced to purplish blue formazan crystals by succinate tetrazolium reductase in mitochondria. Formazan formation can therefore be used to assess and determine the survival rate of cells.
A549, NCI-H460, CL1-0, CL1-5 and DMS 114 cells were suspended and cultured in 10% fetal bovine serum (Life Technologies Inc.) containing RPM1-1640 culture medium that also includes 1% penicillin and 1% streptomycin. Human bronchial epithelium cell line, BEAS-2B was used as a control. The BEAS-2B cell line was cultured in LHC-9 serum-free medium. All these cell lines were incubated under 5% CO2, 37° C. for 24 hours. After cell proliferation, the cells were washed once with PBS, treated with the trypsin-EDTA, and then centrifuged at 1,200 rpm for 5 minutes to separate cells from supernatant. The cells were re-suspended in fresh culture medium (10 mL) and placed in 96 well plates.
To each of the 96 well plates containing A549, NCI-H460, CL1-0, CL1-5, DMS 114 or BEAS-2B, 0.03, 0.1, 0.3, 1 and 3 μg/ml of compound 1 were add. The 96 well plates were incubated at 37° C., 5% CO2 for 48 hours. Subsequently, in the dark environment to each well of the plates were added 2.5 mg/ml of MTT. The reaction was terminated by addition of 100 ul of lysis buffer after 4 hours. The survival rate of cells was calculated based on the measurement of absorption at the 570 nm wavelength by enzyme immunoassay analyzer.

A short description of data set [3]: Drug distribution in organs analysis (LC/MS/MS). To be noted: CD-1 mice, iv 2 mg/Kg, 0.25-4 hours, plasma, kidney, small and large intestine. Format: in vivo, CD-1 male mice. On the procedure: Experiments described herein were performed on CD-1 male mice (average weight 24±2 grams, provided by BioLasco, Taiwan). The mice were injected intravenously with a solution of compound 1 in 5% ethanol and 30% PEG400 (2 mg/Kg body weight). After 0.25, 0.5, 1, 2, 4 hours of the iv injection, 0.5 ml of blood was collected via cardiac puncture. The bloods were placed in a centrifuge tube containing K-EDTA and centrifuged for 15 min at 4° C. under 1500 g to produce supernatants (plasma sample). At the same time points, lung, kidney, small intestine and large intestine of the mice were collected and preserved at −70° C. for similar analysis.
The concentration of compound 1 in various organ samples (i.e., plasma, large intestine, left kidney, lung, right kidney and small intestine) were analyzed by LC/MS/MS spectrometer (Waters Alliance 2790 LC and Micromass Quattro Ultima). For example, plasma sample was mixed with acetonitrile and then centrifuged to prepare supernatant that was analyzed by LC/MS/MS. The pharmacokinetic parameters were obtained by WinNonlin™ software by non-compartment method.

In data set [4] the test system is DMS 114. The data set can be described thus: MTT cell survival assay, DMS 114. Format: cell-based. As to conditions: Homo sapiens, 48 hours, read-out: IC50 against DMS 114. On the procedure: as §1, §2, §3, §4
The mark [5] stands for this setting: 48 hours, read-out: IC50 (μg/ml), in vitro cell survival rate test, A549.

Turning to `COC1=C(OC)C(O)C(C/C=C(\C)CC/C=C(\C)CCC=C(C)C)C(C)C1=O` (stereo not drawn) [Compound 1, 4-hydroxy-2,3-dimethoxy-6-methyl-5-(3,7,11-trimethyldodeca-2,6,10-trienyl)cyclohex-2-enone], the IC50 was determined as 0.82 µg/mL (≈ 2.1 µM) in data set [1], 0.45 µg/mL in data set [2] (setting [5]) and 16 µM in data set [4]. The “Concentration in lung versus other organs (FIG. 10)” value in data set [3] is “significantly higher concentration than other organs”. For the molecule `COC1=C(O)C(O)C(C/C=C(\C)CC/C=C(\C)CCC=C(C)C)C(C)C1=O` (stereo not drawn) [Compound 4, 3,4-dihydroxy-2-methoxy-6-methyl-5-(3,7,11-trimethyldodeca-2,6,10-trienyl)cyclohex-2-enone], in data set [2] (setting [5]), the IC50 turned out to be 3.24 µg/mL. On the same count and under the same terms, the result for `COC1=C(OC)C(O)C(C/C=C(\C)CC/C=C(\C)CCCC(C)(C)O)C(C)C1=O` (stereo not drawn) [Compound 5, 4-hydroxy-5-(11-hydroxy-3,7,11-trimethyldodeca-2,6-dienyl)-2,3-dimethoxy-6-methylcyclohex-2-enone] reads 13.5 µg/mL. On to `COC1=C(OC)C(O)C(C/C=C(\C)CCC(=O)O)C(C)C1=O` (stereo not drawn) [Compound 6], for which the figures for the IC50 in data set [2] (setting [5]) and in data set [2] (read-out: IC50 on A549 (text)) were 28 µg/mL and 28 µM, respectively. For `COC1=C(OC)C(O)C(C/C=C(\C)CC/C=C(\C)CCCC(C)(C)OC)C(C)C1=O` (stereo not drawn) [Compound 7, 4-hydroxy-2,3-dimethoxy-5-(11-methoxy-3,7,11-trimethyldodeca-2,6-dienyl)-6-methylcyclohex-2-enone], the IC50 in data set [2] (setting [5]) worked out at 10.5 µg/mL.
